Source: US11339171B2, “MDM2 inhibitors” (Gan & Lee Pharmaceuticals, priority 2017, dated 2022)
Values joined by “and” are separate entries in the source; they are usually repeats but may differ in a detail not shown here. Identical values can stand only once. Like-named read-outs stand apart in the source and are kept apart here.

Experiments:
[1] = target: T1, MDM2 (Homo sapiens, UniProt Q00987); experiment: Inhibition test of MDM2-P53 (GST-MDM2, Biotin-P53, Anti-GST-Tb, SA-XL665); type: binding
T1 construct: made in house
Outline: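 Compounds, serially diluted 5-fold (twelve concentrations), were shaken for 90 min at 25° C with a mix of GST-MDM2 (4 nM final), Biotin-P53, anti-GST-Tb and SA-XL665. Buffer: 1×PBS, 0.1% BSA, 5 mM DTT, 1 mM AEBSF; signal read on a microplate reader.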

[2] = Pharmacokinetics in ICR mice after intravenous and intragastric administration; type: in vivo; conditions: for MRT last: read-out: MRT(0-t); for MRT inf: read-out: MRT(0-∞); for Vd: read-out: Vz; for half-life: read-out: t1/2 (converted)
Outline: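 Plasma concentration-time data, quantified by LC-MS/MS with a 1 ng/mL lower limit, gave AUC, t1/2, MRT, Cmax, Tmax, bioavailability, Vz and clearance. Overnight-fasted male ICR mice (three per route) received 2 mg/kg intravenously or 5 mg/kg intragastrically.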

[3] = test system: human osteosarcoma cell line SJSA-1; experiment: Inhibition of proliferation of human osteosarcoma cell line SJSA-1 (DAPI staining, In Cell Analyzer); conditions: Homo sapiens, SJSA-1, 72 h, read-out: IC50 (nM), inhibitory activity on proliferation of human osteosarcoma cell line SJSA-1, SJSA-1, incubated 72 h
[4] = ICR mice, IV 2 mg/kg, individual animal, 2 mg/kg
[5] = ICR mice, PO 5 mg/kg, individual animal, 5 mg/kg
[6] = male, ICR, mouse, plasma, iv, 2 mg/kg, ICR mice, IV 2 mg/kg, individual animal
[7] = male, ICR, mouse, plasma, iv, 2 mg/kg, ICR mice, IV 2 mg/kg, mean of 3 animals
[8] = male, ICR, mouse, plasma, po, 5 mg/kg, ICR mice, PO 5 mg/kg, individual animal
[9] = male, ICR, mouse, plasma, po, 5 mg/kg, ICR mice, PO 5 mg/kg, mean of 3 animals

T1 sequence (Q00987 whole entry): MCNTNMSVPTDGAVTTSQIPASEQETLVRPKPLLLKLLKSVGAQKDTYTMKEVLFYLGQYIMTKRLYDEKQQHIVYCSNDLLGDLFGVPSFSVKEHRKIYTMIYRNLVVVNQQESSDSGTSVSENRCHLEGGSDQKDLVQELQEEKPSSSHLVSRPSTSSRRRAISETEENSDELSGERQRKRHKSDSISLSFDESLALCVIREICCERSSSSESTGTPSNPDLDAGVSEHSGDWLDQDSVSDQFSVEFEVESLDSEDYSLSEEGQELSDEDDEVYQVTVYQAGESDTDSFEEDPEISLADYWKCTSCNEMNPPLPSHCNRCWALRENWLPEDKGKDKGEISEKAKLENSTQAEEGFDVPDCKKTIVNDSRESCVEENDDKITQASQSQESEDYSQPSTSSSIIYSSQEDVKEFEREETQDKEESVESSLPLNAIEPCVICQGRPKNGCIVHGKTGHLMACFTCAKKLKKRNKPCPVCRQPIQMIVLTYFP

SMILES: COc1cc(OC)c(-c2nc3c(n2C(C)C)[C@@]2(C(=O)Nc4cc(Cl)ccc42)N(c2cccc(Cl)c2)C3=O)cn1 [Example S-115, (S)-6-chloro-5′-(3-chlorophenyl)-2′-(4,6-dimethoxypyridin-3-yl)-3′-isopropyl-3′H-spiro[dihydroindole-3,4′-pyrrolo[3,4-d]imidazole]-2,6′(5′H)-dione]
- IC50 [1]: 1.3 nM
- AUC(0-t) [2, 4]: 2278.66 ng·h/mL and 2987.42 ng·h/mL
- AUC(0-∞) [2, 4]: 2289.66 ng·h/mL and 3011.30 ng·h/mL
- CL [2, 4]: 14.56 mL/min/kg and 11.07 mL/min/kg
- Cmax [2, 4]: 2549.96 ng/mL and 4136.98 ng/mL
- MRT(0-t) [2, 4]: 47.4 min and 49.2 min
- MRT(0-∞) [2, 4]: 49.2 min and 52.2 min
- Vz [2, 4]: 1.01 L/kg and 0.87 L/kg
- t1/2 [2, 4]: 48 min
- AUC(0-t) [2, 5]: 2355.30 ng·h/mL and 2985.59 ng·h/mL
- AUC(0-∞) [2, 5]: 2377.88 ng·h/mL and 3066.25 ng·h/mL
- Cmax [2, 5]: 2135.46 ng/mL and 834.66 ng/mL and 601.29 ng/mL
- MRT(0-t) [2, 5]: 82.2 min and 128 min and 193 min
- MRT(0-∞) [2, 5]: 84.6 min and 132 min and 203 min
- Tmax [2, 5]: 30 min and 60 min and 240 min
- t1/2 [2, 5]: 71.4 min and 67.2 min
- AUC(0-inf) [2, 6]: 2590 ng·h/mL
- clearance [2, 6]: 12.9 mL/min/kg
- AUC(0-t) ([2]; male, ICR, mouse, plasma, iv, 2 mg/kg, ICR mice, IV 2 mg/kg, individual animal, read-out: AUC(0-t)): 2580 ng·h/mL
- Cmax ([2]; male, ICR, mouse, plasma, iv, 2 mg/kg, ICR mice, IV 2 mg/kg, individual animal, read-out: Cmax): 3000 ng/mL
- MRT last [2, 6]: 54 min
- MRT inf [2, 6]: 56.4 min
- Tmax ([2]; male, ICR, mouse, plasma, iv, 2 mg/kg, ICR mice, IV 2 mg/kg, individual animal, read-out: Tmax): 4.8 min
- Vd [2, 6]: 1 L/kg
- half-life [2, 6]: 54 min
- AUC(0-inf) [2, 7]: 2630 ng·h/mL
- clearance [2, 7]: 12.8 mL/min/kg
- AUC(0-t) ([2]; male, ICR, mouse, plasma, iv, 2 mg/kg, ICR mice, IV 2 mg/kg, mean of 3 animals, read-out: AUC(0-t)): 2610 ng·h/mL
- Cmax ([2]; male, ICR, mouse, plasma, iv, 2 mg/kg, ICR mice, IV 2 mg/kg, mean of 3 animals, read-out: Cmax): 3230 ng/mL
- MRT last [2, 7]: 50.4 min
- MRT inf [2, 7]: 52.8 min
- Tmax ([2]; male, ICR, mouse, plasma, iv, 2 mg/kg, ICR mice, IV 2 mg/kg, mean of 3 animals, read-out: Tmax): 4.98 min
- Vd [2, 7]: 0.96 L/kg
- half-life [2, 7]: 52.2 min
- AUC(0-inf) [2, 8]: 3670 ng·h/mL
- AUC(0-t) ([2]; male, ICR, mouse, plasma, po, 5 mg/kg, ICR mice, PO 5 mg/kg, individual animal, read-out: AUC(0-t)): 3660 ng·h/mL
- half-life [2, 8]: 64.2 min
- AUC(0-inf) [2, 9]: 3040 ng·h/mL
- AUC(0-t) ([2]; male, ICR, mouse, plasma, po, 5 mg/kg, ICR mice, PO 5 mg/kg, mean of 3 animals, read-out: AUC(0-t)): 3000 ng·h/mL
- Cmax ([2]; male, ICR, mouse, plasma, po, 5 mg/kg, ICR mice, PO 5 mg/kg, mean of 3 animals, read-out: Cmax): 1190 ng/mL
- MRT last [2, 9]: 134 min
- MRT inf [2, 9]: 140 min
- Tmax ([2]; male, ICR, mouse, plasma, po, 5 mg/kg, ICR mice, PO 5 mg/kg, mean of 3 animals, read-out: Tmax): 110 min
- half-life [2, 9]: 67.2 min
- AUC(0-t) ([2]; male, ICR, mouse, plasma, po, 5 mg/kg, oral intragastric administration 5 mg/kg, read-out: AUC0-t): 3000 ng·h/mL
- bioavailability ([2]; male, mouse, plasma, ICR mice, PO 5 mg/kg vs IV 2 mg/kg, from mean values, read-out: F* (bioavailability)): 45.9%
- IC50 [3]: 3360 nM
